Values of other authors in PubChem BioAssay AID1259409 (Chemical Carcinogenesis Research Information System (CCRIS), 2018).

Test system: rodent chemically induced tumor inhibition, incidence and multiplicity
Test: CCRIS tumor inhibitor studies

## Cc1c2ccncc2c(C)c2c1[nH]c1ccccc12
Carcinogen: 7,12-DIMETHYLBENZ[A]ANTHRACENE, 57-97-6, Dose [Inhibitor]: 0, 4.1 NMOL IN 0.2 ML ACETONE APPLIED 5 MIN PRIOR TO CARCINOGEN (STUDY DURATION: 21 WK), Route [Inhibitor]: DERMAL, Species: MOUSE, Strain/Sex: SENCAR/FEMALE, Target Tissue: Type of Lesion: SKIN: PAPILLOMA, Dose [Carcinogen]: 10 NMOL IN 0.2 ML ACETONE ONCE, Promoter: 12-O-TETRADECANOYLPHORBOL-13-ACETATE, 16561-29-8
  tumour outcome (control, treated, inhibition, significance): 79%, 100%, -27%, not calculated
Carcinogen: 7,12-DIMETHYLBENZ[A]ANTHRACENE, 57-97-6, Dose [Inhibitor]: 0, 41 NMOL IN 0.2 ML ACETONE APPLIED 5 MIN PRIOR TO CARCINOGEN (STUDY DURATION: 21 WK), Route [Inhibitor]: DERMAL, Species: MOUSE, Strain/Sex: SENCAR/FEMALE, Target Tissue: Type of Lesion: SKIN: PAPILLOMA, Dose [Carcinogen]: 10 NMOL IN 0.2 ML ACETONE ONCE, Promoter: 12-O-TETRADECANOYLPHORBOL-13-ACETATE, 16561-29-8
  tumour outcome (control, treated, inhibition, significance): 79%, 87%, -10%, not calculated
Carcinogen: 7,12-DIMETHYLBENZ[A]ANTHRACENE, 57-97-6, Dose [Inhibitor]: 0, 410 NMOL IN 0.2 ML ACETONE APPLIED 5 MIN PRIOR TO CARCINOGEN (STUDY DURATION: 21 WK), Route [Inhibitor]: DERMAL, Species: MOUSE, Strain/Sex: SENCAR/FEMALE, Target Tissue: Type of Lesion: SKIN: PAPILLOMA, Dose [Carcinogen]: 10 NMOL IN 0.2 ML ACETONE ONCE, Promoter: 12-O-TETRADECANOYLPHORBOL-13-ACETATE, 16561-29-8
  tumour outcome (control, treated, inhibition, significance): 79%, 47%, 41%, not calculated
Carcinogen: 7,14-DIMETHYLBENZO[A,H]ANTHRACENE, 35335-07-0, Dose [Inhibitor]: 0, 4.1 NMOL IN 0.2 ML ACETONE APPLIED 5 MIN PRIOR TO CARCINOGEN (STUDY DURATION: 21 WK), Route [Inhibitor]: DERMAL, Species: MOUSE, Strain/Sex: SENCAR/FEMALE, Target Tissue: Type of Lesion: SKIN: PAPILLOMA, Dose [Carcinogen]: 47.5 NMOL IN 0.2 ML ACETONE ONCE, Promoter: 12-O-TETRADECANOYLPHORBOL-13-ACETATE, 16561-29-8
  tumour outcome (control, treated, inhibition, significance): 97%, 100%, -3%, not calculated
Carcinogen: 7,14-DIMETHYLBENZO[A,H]ANTHRACENE, 35335-07-0, Dose [Inhibitor]: 0, 41 NMOL IN 0.2 ML ACETONE APPLIED 5 MIN PRIOR TO CARCINOGEN (STUDY DURATION: 21 WK), Route [Inhibitor]: DERMAL, Species: MOUSE, Strain/Sex: SENCAR/FEMALE, Target Tissue: Type of Lesion: SKIN: PAPILLOMA, Dose [Carcinogen]: 47.5 NMOL IN 0.2 ML ACETONE ONCE, Promoter: 12-O-TETRADECANOYLPHORBOL-13-ACETATE, 16561-29-8
  tumour outcome (control, treated, inhibition, significance): 97%, 93%, 4%, not calculated
Carcinogen: 7,14-DIMETHYLBENZO[A,H]ANTHRACENE, 35335-07-0, Dose [Inhibitor]: 0, 410 NMOL IN 0.2 ML ACETONE APPLIED 5 MIN PRIOR TO CARCINOGEN (STUDY DURATION: 21 WK), Route [Inhibitor]: DERMAL, Species: MOUSE, Strain/Sex: SENCAR/FEMALE, Target Tissue: Type of Lesion: SKIN: PAPILLOMA, Dose [Carcinogen]: 47.5 NMOL IN 0.2 ML ACETONE ONCE, Promoter: 12-O-TETRADECANOYLPHORBOL-13-ACETATE, 16561-29-8
  tumour outcome (control, treated, inhibition, significance): 97%, 90%, 7%, not calculated
Carcinogen: DIBENZO[A,H]ANTHRACENE, 53-70-3, Dose [Inhibitor]: 0, 4.1 NMOL IN 0.2 ML ACETONE APPLIED 5 MIN PRIOR TO CARCINOGEN (STUDY DURATION: 21 WK), Route [Inhibitor]: DERMAL, Species: MOUSE, Strain/Sex: SENCAR/FEMALE, Target Tissue: Type of Lesion: SKIN: PAPILLOMA, Dose [Carcinogen]: 200 NMOL IN 0.2 ML ACETONE ONCE, Promoter: 12-O-TETRADECANOYLPHORBOL-13-ACETATE, 16561-29-8
  tumour outcome (control, treated, inhibition, significance): 100%, 87%, 13%, not calculated
Carcinogen: DIBENZO[A,H]ANTHRACENE, 53-70-3, Dose [Inhibitor]: 0, 41 NMOL IN 0.2 ML ACETONE APPLIED 5 MIN PRIOR TO CARCINOGEN (STUDY DURATION: 21 WK), Route [Inhibitor]: DERMAL, Species: MOUSE, Strain/Sex: SENCAR/FEMALE, Target Tissue: Type of Lesion: SKIN: PAPILLOMA, Dose [Carcinogen]: 200 NMOL IN 0.2 ML ACETONE ONCE, Promoter: 12-O-TETRADECANOYLPHORBOL-13-ACETATE, 16561-29-8
  tumour outcome (control, treated, inhibition, significance): 100%, 97%, 3%, not calculated
Carcinogen: DIBENZO[A,H]ANTHRACENE, 53-70-3, Dose [Inhibitor]: 0, 410 NMOL IN 0.2 ML ACETONE APPLIED 5 MIN PRIOR TO CARCINOGEN (STUDY DURATION: 21 WK), Route [Inhibitor]: DERMAL, Species: MOUSE, Strain/Sex: SENCAR/FEMALE, Target Tissue: Type of Lesion: SKIN: PAPILLOMA, Dose [Carcinogen]: 200 NMOL IN 0.2 ML ACETONE ONCE, Promoter: 12-O-TETRADECANOYLPHORBOL-13-ACETATE, 16561-29-8
  tumour outcome (control, treated, inhibition, significance): 100%, 97%, 3%, not calculated

## CCOC(=O)C(C)(C)Oc1ccc(Cl)cc1
Carcinogen: N-NITROSOBIS(2-HYDROXYPROPYL)AMINE, 53609-64-6, Dose [Inhibitor]: 0.25% IN DIET FOLLOWING LAST CARCINOGEN DOSE FOR 30 WK (STUDY DURATION: 35 WK), Route [Inhibitor]: ORAL, Species: HAMSTER, Strain/Sex: SYRIAN/MALE, Target Tissue: Type of Lesion: KIDNEY: RENAL CELL CARCINOMA, Dose [Carcinogen]: 500 MG/KG BW 1/WK FOR 5 WK, Promoter: NONE USED
  tumour outcome (control, treated, inhibition, significance): 1/17 (6%), 2/16 (13%), -117%, not calculated
Carcinogen: N-NITROSOBIS(2-HYDROXYPROPYL)AMINE, 53609-64-6, Dose [Inhibitor]: 0.25% IN DIET FOLLOWING LAST CARCINOGEN DOSE FOR 30 WK (STUDY DURATION: 35 WK), Route [Inhibitor]: ORAL, Species: HAMSTER, Strain/Sex: SYRIAN/MALE, Target Tissue: Type of Lesion: LUNG: ADENOCARCINOMA, Dose [Carcinogen]: 500 MG/KG BW 1/WK FOR 5 WK, Promoter: NONE USED
  tumour outcome (control, treated, inhibition, significance): 3/17 (18%), 0/16 (0%), 100%, not calculated
Carcinogen: N-NITROSOBIS(2-HYDROXYPROPYL)AMINE, 53609-64-6, Dose [Inhibitor]: 0.25% IN DIET FOLLOWING LAST CARCINOGEN DOSE FOR 30 WK (STUDY DURATION: 35 WK), Route [Inhibitor]: ORAL, Species: HAMSTER, Strain/Sex: SYRIAN/MALE, Target Tissue: Type of Lesion: LUNG: ADENOMA, Dose [Carcinogen]: 500 MG/KG BW 1/WK FOR 5 WK, Promoter: NONE USED
  tumour outcome (control, treated, inhibition, significance): 16/17 (94%), 10/16 (63%), 33%, not calculated
Carcinogen: N-NITROSOBIS(2-HYDROXYPROPYL)AMINE, 53609-64-6, Dose [Inhibitor]: 0.25% IN DIET FOLLOWING LAST CARCINOGEN DOSE FOR 30 WK (STUDY DURATION: 35 WK), Route [Inhibitor]: ORAL, Species: HAMSTER, Strain/Sex: SYRIAN/MALE, Target Tissue: Type of Lesion: PANCREAS: ADENOCARCINOMA, Dose [Carcinogen]: 500 MG/KG BW 1/WK FOR 5 WK, Promoter: NONE USED
  tumour outcome (control, treated, inhibition, significance): 8/17 (47%), 3/16 (19%), 60%, not calculated
Carcinogen: N-NITROSOBIS(2-HYDROXYPROPYL)AMINE, 53609-64-6, Dose [Inhibitor]: 0.25% IN DIET FOLLOWING LAST CARCINOGEN DOSE FOR 30 WK (STUDY DURATION: 35 WK), Route [Inhibitor]: ORAL, Species: HAMSTER, Strain/Sex: SYRIAN/MALE, Target Tissue: Type of Lesion: PANCREAS: ADENOMA, Dose [Carcinogen]: 500 MG/KG BW 1/WK FOR 5 WK, Promoter: NONE USED
  tumour outcome (control, treated, inhibition, significance): 5/17 (29%), 4/16 (25%), 14%, not calculated
Carcinogen: N-NITROSOBIS(2-HYDROXYPROPYL)AMINE, 53609-64-6, Dose [Inhibitor]: 0.5% IN DIET FOLLOWING LAST CARCINOGEN DOSE FOR 30 WK (STUDY DURATION: 35 WK), Route [Inhibitor]: ORAL, Species: HAMSTER, Strain/Sex: SYRIAN/MALE, Target Tissue: Type of Lesion: KIDNEY: RENAL CELL CARCINOMA, Dose [Carcinogen]: 500 MG/KG BW 1/WK FOR 5 WK, Promoter: NONE USED
  tumour outcome (control, treated, inhibition, significance): 1/17 (6%), 3/17 (18%), -200%, not calculated
Carcinogen: N-NITROSOBIS(2-HYDROXYPROPYL)AMINE, 53609-64-6, Dose [Inhibitor]: 0.5% IN DIET FOLLOWING LAST CARCINOGEN DOSE FOR 30 WK (STUDY DURATION: 35 WK), Route [Inhibitor]: ORAL, Species: HAMSTER, Strain/Sex: SYRIAN/MALE, Target Tissue: Type of Lesion: LUNG: ADENOCARCINOMA, Dose [Carcinogen]: 500 MG/KG BW 1/WK FOR 5 WK, Promoter: NONE USED
  tumour outcome (control, treated, inhibition, significance): 3/17 (18%), 2/17 (12%), 33%, not calculated
Carcinogen: N-NITROSOBIS(2-HYDROXYPROPYL)AMINE, 53609-64-6, Dose [Inhibitor]: 0.5% IN DIET FOLLOWING LAST CARCINOGEN DOSE FOR 30 WK (STUDY DURATION: 35 WK), Route [Inhibitor]: ORAL, Species: HAMSTER, Strain/Sex: SYRIAN/MALE, Target Tissue: Type of Lesion: LUNG: ADENOMA, Dose [Carcinogen]: 500 MG/KG BW 1/WK FOR 5 WK, Promoter: NONE USED
  tumour outcome (control, treated, inhibition, significance): 16/17 (94%), 9/17 (53%), 44%, p<0.05
Carcinogen: N-NITROSOBIS(2-HYDROXYPROPYL)AMINE, 53609-64-6, Dose [Inhibitor]: 0.5% IN DIET FOLLOWING LAST CARCINOGEN DOSE FOR 30 WK (STUDY DURATION: 35 WK), Route [Inhibitor]: ORAL, Species: HAMSTER, Strain/Sex: SYRIAN/MALE, Target Tissue: Type of Lesion: PANCREAS: ADENOCARCINOMA, Dose [Carcinogen]: 500 MG/KG BW 1/WK FOR 5 WK, Promoter: NONE USED
  tumour outcome (control, treated, inhibition, significance): 8/17 (47%), 1/17 (6%), 87%, p<0.05
Carcinogen: N-NITROSOBIS(2-HYDROXYPROPYL)AMINE, 53609-64-6, Dose [Inhibitor]: 0.5% IN DIET FOLLOWING LAST CARCINOGEN DOSE FOR 30 WK (STUDY DURATION: 35 WK), Route [Inhibitor]: ORAL, Species: HAMSTER, Strain/Sex: SYRIAN/MALE, Target Tissue: Type of Lesion: PANCREAS: ADENOMA, Dose [Carcinogen]: 500 MG/KG BW 1/WK FOR 5 WK, Promoter: NONE USED
  tumour outcome (control, treated, inhibition, significance): 5/17 (29%), 2/17 (12%), 59%, not calculated
